From patent US9023789B2, “Amylin analogs and pharmaceutical compositions thereof” (Novo Nordisk A/S, priority 2012, dated 2015)
In brackets after ≈: the same amount, converted by molar mass. Read-outs that look alike come from different tables or passages of the source. Numbered stars: 1 amine (or outer) side, 2 acyl side, 3 side chain; on linkers, the order of the positions; unused ones are H or OH. Bridge positions count the residues as written; N and C are the ends. Side chains are listed from the residue outwards. Peptide text beside a SMILES is read from it. * marks the point of attachment. C20 diacid = O=C(O)CCCCCCCCCCCCCCCCCCC(=O)*; γGlu = O=C(O)[C@H](CCC(=O)[*:2])N[*:1]; AEEA = NCCOCCOCC(=O)O

Assays:
[1] = target: T1, human amylin 3(a) receptor (human calcitonin receptor + RAMP-3) in BHK570 cells (Homo sapiens, UniProt O60896+P30988); experiment: ASSAY (II)a functional assay, human amylin receptor (CRE luciferase); assay type: cell-based
T1 construct: expressed in transfected cells
In short: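 Cells were seeded and cultured overnight, then incubated with standard or sample for 3 h at 37° C in serum-containing medium at pH 7.4. The medium was then swapped for PBS, LucLite was added for 30 min at room temperature, and luminescence was recorded. Cells were BHK with CRE-luc and calcitonin receptor, ± RAMP-3.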

[2] = ASSAY (IV) determination of solubility; assay type: physicochemical
In short: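 Polypeptide in water at […] mixed 1:1 with 100 mM buffers of pH 3.0-8.0 (glycylglycine pH 3-5, bistrispropane pH 6-8). Held 18 h at room temperature, then centrifuged; concentration remaining in solution measured by UPLC.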

[3] = target: T2, human amylin receptor (membranes from Amylin 3(a)/CRE-luc cells) (Homo sapiens, UniProt O60896+P30988); experiment: ASSAY (V) binding to the human amylin receptor (SPA, 125I-rat amylin);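 further: competition binding of cell membranes (35 ng/µL) mixed with SPA beads in 384-well plates at 40 µL total volume, read by scintillation counting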
T2 construct: expressed in transfected cells
T2 sequence (P30988 25-474): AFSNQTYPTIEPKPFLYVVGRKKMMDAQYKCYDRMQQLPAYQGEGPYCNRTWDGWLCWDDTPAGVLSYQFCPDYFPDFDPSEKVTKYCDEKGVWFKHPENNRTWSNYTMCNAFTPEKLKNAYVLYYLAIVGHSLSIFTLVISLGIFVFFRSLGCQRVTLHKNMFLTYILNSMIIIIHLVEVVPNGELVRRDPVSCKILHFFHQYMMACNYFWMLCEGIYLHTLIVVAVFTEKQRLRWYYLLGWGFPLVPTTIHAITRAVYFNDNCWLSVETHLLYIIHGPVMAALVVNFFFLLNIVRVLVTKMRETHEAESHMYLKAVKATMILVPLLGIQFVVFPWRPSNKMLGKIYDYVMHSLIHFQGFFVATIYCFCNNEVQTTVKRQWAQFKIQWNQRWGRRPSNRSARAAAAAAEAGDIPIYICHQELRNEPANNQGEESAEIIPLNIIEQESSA
T2 sequence (O60896 24-148 partner): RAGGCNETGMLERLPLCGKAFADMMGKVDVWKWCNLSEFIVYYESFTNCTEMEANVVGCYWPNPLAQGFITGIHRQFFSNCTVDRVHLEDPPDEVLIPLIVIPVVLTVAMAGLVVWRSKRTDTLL

[4] = target: T3, rat amylin receptor (rat calcitonin receptor + rat RAMP 3) (Rattus norvegicus, UniProt P32214+Q9JJ73); experiment: ASSAY (VI) binding to the rat amylin receptor; conditions: for IC50: binding to rat amylin receptor, read-out: rAmylin-R bind IC50
T3 construct: expressed in transfected cells; host or cells: BHK tk'ts 13 (transient, FuGENE 6), membranes
T3 sequence (P32214 25-479 isoform P32214-2 limits assumed): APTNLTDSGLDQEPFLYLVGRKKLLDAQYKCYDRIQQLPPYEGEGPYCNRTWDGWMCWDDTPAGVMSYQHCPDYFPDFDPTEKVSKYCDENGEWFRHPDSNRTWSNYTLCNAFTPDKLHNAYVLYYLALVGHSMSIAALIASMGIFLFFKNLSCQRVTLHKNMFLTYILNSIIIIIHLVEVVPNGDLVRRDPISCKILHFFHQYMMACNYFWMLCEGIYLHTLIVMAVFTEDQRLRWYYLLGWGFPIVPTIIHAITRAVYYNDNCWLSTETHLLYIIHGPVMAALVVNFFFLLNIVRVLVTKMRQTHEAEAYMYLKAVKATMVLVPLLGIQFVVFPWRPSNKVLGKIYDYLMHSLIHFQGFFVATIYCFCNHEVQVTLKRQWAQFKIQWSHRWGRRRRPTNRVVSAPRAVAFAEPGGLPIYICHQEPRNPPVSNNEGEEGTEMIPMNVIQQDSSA
T3 sequence (Q9JJ73 23-147 partner): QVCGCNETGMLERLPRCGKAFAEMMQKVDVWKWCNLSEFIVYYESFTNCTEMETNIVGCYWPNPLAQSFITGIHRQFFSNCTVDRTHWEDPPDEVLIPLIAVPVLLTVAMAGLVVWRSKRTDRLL
In short: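 Binding to the rat amylin receptor was determined with membrane preparations. The receptor was expressed by transiently transfecting BHK tk′ts 13 cells with rat calcitonin receptor, using FuGENE® 6 (Roche) according to the manufacturer's recommendations. Roughly 48 hours later the cells were harvested and their membranes isolated.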

[5] = target: T4, rat calcitonin receptor (Rattus norvegicus, UniProt P32214); experiment: ASSAY (VIII) binding to the rat calcitonin receptor; conditions: Table 7, read-out: rCTR bind IC50
T4 construct: expressed in transfected cells; host or cells: BHK tk'ts 13 (transient, FuGENE 6), membranes
T4 sequence (P32214 25-479 isoform P32214-2 limits assumed): T3 sequence (P32214 25-479 isoform P32214-2 limits assumed)
In short: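 Membranes were prepared from BHK tk′ts 13 cells transiently transfected with rat calcitonin receptor. Cells were grown in DMEM with 10% FBS and harvested approximately 48 hours after transfection.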

[6] = hCTR funct. EC50 divided by hAmylin-R funct. EC50
[7] = hCTR funct. EC50 over hAmylin-R funct. EC50
[8] = human functional selectivity: hCTR funct. EC50 / hAmylin-R funct. EC50
[9] = bistrispropane buffer, pH 6.5, read-out: Solubility pH 6.5 Concentration
[10] = bistrispropane buffer, pH 7.5, read-out: Solubility pH 7.5 Concentration
[11] = bistrispropane buffer, pH 6.0, read-out: Solubility pH 6.0 Concentration
[12] = bistrispropane buffer, pH 7.0, read-out: Solubility pH 7.0 Concentration
[13] = bistrispropane buffer, pH 8.0, read-out: Solubility pH 8.0 Concentration
[14] = glycylglycine buffer, pH 3.0, read-out: Solubility pH 3.0 Concentration
[15] = glycylglycine buffer, pH 4.0, read-out: Solubility pH 4.0 Concentration
[16] = glycylglycine buffer, pH 5.0, read-out: Solubility pH 5.0 Concentration
[17] = Table 5, selectivity, hCTR bind IC50 / hAmylin-R bind IC50
[18] = Table 5a, selectivity, hCTR bind IC50 / hAmylin-R bind IC50
[19] = Table 5b, selectivity, hCTR bind IC50 / hAmylin-R bind IC50
[20] = Table 5c, selectivity, hCTR bind IC50 / hAmylin-R bind IC50
[21] = Table 7, human binding selectivity, included for comparison
[22] = Table 7a (preferred compounds), human binding selectivity, included for comparison
[23] = ratio of human calcitonin receptor binding IC50 to human amylin receptor binding IC50
[24] = Table 7, rat binding selectivity, rCTR IC50 / rAmylin-R IC50
[25] = Table 7a (preferred compounds), rat binding selectivity, rCTR IC50 / rAmylin-R IC50
[26] = ratio of rCTR bind IC50 to rAmylin-R bind IC50

Ratio hCT/hAmylin funct. [1, 6]	Ratio hCT/hAmylin funct. [1, 7]	Ratio hCT/hAmylin funct. [1, 8]	solubility at 18 h [2, 9] [µM]	solubility at 18 h [2, 10] [µM]	solubility at 18 h [2, 11] [µM]	solubility at 18 h [2, 12] [µM]	solubility at 18 h [2, 13] [µM]	solubility at 18 h [2, 14] [µM]	solubility at 18 h [2, 15] [µM]	solubility at 18 h [2, 16] [µM]	Ratio hCT/hAmylin binding [3, 17]	Ratio hCT/hAmylin binding [3, 18]	Ratio hCT/hAmylin binding [3, 19]	Ratio hCT/hAmylin binding [3, 20]	Ratio hCT/hAmylin binding [3, 21]	Ratio hCT/hAmylin binding [3, 22]	Ratio hCT/hAmylin binding [3, 23]	IC50 ([4]; Table 7) [nM]	Ratio rCT/rAmylin binding [4, 24]	other results	Structure (SMILES)
30.6	30.6	30.6	≥ 200	193 (≈ 868 µg/mL)	≥ 200	≥ 200	150 (≈ 674 µg/mL)	≥ 200	≥ 200	≥ 200	91.4	91.4	91.4	91.4	91.4	91.4	91.4	4.03	109.8	EC50 ([1]; human amylin receptor functional potency, assay (II), read-out: hAmylin-R funct. EC50): 0.296 nM; IC50 ([3]; Table 4, read-out: hAmylin-R bind IC50): 0.666 nM; Ratio rCT/rAmylin binding [4, 25]: 109.8; Ratio rCT/rAmylin binding [4, 26]: 109.8; IC50 [5]: 442 nM	CC[C@H](C)[C@H](NC(=O)[C@H](C)NC(=O)CNC(=O)[C@H](Cc1ccccc1)NC(=O)[C@H](CC(N)=O)NC(=O)[C@@H]1CCCN1C(=O)[C@H](CO)NC(=O)[C@H](CO)NC(=O)[C@H](Cc1c[nH]cn1)NC(=O)[C@H](CCCNC(=N)N)NC(=O)[C@H](CC(C)C)NC(=O)[C@H](Cc1ccccc1)NC(=O)[C@@H](NC(=O)[C@H](C)NC(=O)[C@H](CC(C)C)NC(=O)[C@H](CCCNC(=N)N)NC(=O)[C@H](CCC(N)=O)NC(=O)[C@@H](NC(=O)[C@H](C)NC(=O)[C@@H]1CSSC[C@H](NC(=O)[C@@H](N)CCCCNC(=O)COCCOCCNC(=O)CC[C@H](NC(=O)CCCCCCCCCCCCCCCCCCC(=O)O)C(=O)O)C(=O)N[C@@H](CC(N)=O)C(=O)N[C@@H]([C@@H](C)O)C(=O)N[C@@H](C)C(=O)N[C@@H]([C@@H](C)O)C(=O)N1)[C@@H](C)O)[C@@H](C)O)C(=O)N1CCC[C@H]1C(=O)N[C@@H](CO)C(=O)N[C@@H](CO)C(=O)N[C@H](C(=O)N1CCC[C@H]1C(=O)N[C@H](C(=O)NCC(=O)N[C@@H](CO)C(=O)N[C@@H](CC(N)=O)C(=O)N[C@H](C(=O)N[C@@H](Cc1ccc(O)cc1)C(N)=O)[C@@H](C)O)C(C)C)[C@@H](C)O [Example 75] (H-K([AEEA-γGlu-C20 diacid])CNTATCATQRLATFLRHSSPNFGAIPSSTPVGSNTY-NH2; disulfide 2-7 (inferred); N-terminus assumed)
10.0	10.0	10.0	≥ 200	94 (≈ 422 µg/mL)	≥ 200	154 (≈ 691 µg/mL)	120 (≈ 539 µg/mL)	≥ 200	≥ 200	≥ 200	100.4	100.4	100.4	100.4	100.4	100.4	100.4	2.7	79.8	Ratio rCT/rAmylin binding [4, 25]: 79.8; Ratio rCT/rAmylin binding [4, 26]: 79.8; IC50 [5]: 216 nM	CC[C@H](C)[C@H](NC(=O)[C@H](C)NC(=O)CNC(=O)[C@H](Cc1ccccc1)NC(=O)[C@H](CC(N)=O)NC(=O)[C@@H]1CCCN1C(=O)[C@H](CO)NC(=O)[C@H](CO)NC(=O)[C@H](Cc1c[nH]cn1)NC(=O)[C@H](CCCNC(=N)N)NC(=O)[C@H](CC(C)C)NC(=O)[C@H](Cc1ccccc1)NC(=O)[C@H](Cc1c[nH]cn1)NC(=O)[C@H](C)NC(=O)[C@H](CC(C)C)NC(=O)[C@H](CCCNC(=N)N)NC(=O)[C@H](CCC(N)=O)NC(=O)[C@@H](NC(=O)[C@H](C)NC(=O)[C@@H]1CSSC[C@H](NC(=O)[C@H](CCCNC(=N)N)NC(=O)CNC(=O)CC[C@H](NC(=O)CCCCCCCCCCCCCCCCCCC(=O)O)C(=O)O)C(=O)N[C@@H](CC(N)=O)C(=O)N[C@@H]([C@@H](C)O)C(=O)N[C@@H](C)C(=O)N[C@@H]([C@@H](C)O)C(=O)N1)[C@@H](C)O)C(=O)N1CCC[C@H]1C(=O)N[C@@H](CO)C(=O)N[C@@H](CO)C(=O)N[C@H](C(=O)N[C@@H](CC(N)=O)C(=O)N[C@H](C(=O)NCC(=O)N[C@@H](CO)C(=O)N[C@@H](CC(N)=O)C(=O)N[C@H](C(=O)N[C@@H](Cc1ccc(O)cc1)C(N)=O)[C@@H](C)O)C(C)C)[C@@H](C)O [Example 99] ({C20 diacid-γGlu}-GRCNTATCATQRLAHFLRHSSPNFGAIPSSTNVGSNTY-NH2; disulfide 3-8)
